{"source": "paper PMC8144573", "about": "“Distinct EH domains of the endocytic TPLATE complex confer lipid and protein binding” (Nature Communications, 2021)", "key": {"[1]": {"tested_on": "SCAMP5", "assay": "ES9 treatment, SCAMP5 localization", "assay_type": "cell-based, Arabidopsis", "settings": "10 µM ES9, 5 min pretreatment then 30 min co-treatment with 2 µM FM4-64", "description": "For ES9 treatment plants were pretreated for 5 min with 10 µM ES9, a generous gift of the lab of Jenny Russinova (PSB, VIB/Ugent, BE), in 1/2 MS media followed by 30 min co-treatment of ES9 with 2 µM FM4-64."}, "[2]": {"tested_on": "EH1.2", "assay": "Peptidome profiling by mass spectrometry, EH1.2", "assay_type": "binding, Arabidopsis thaliana", "description": "(§1) Arabidopsis (Col-0) was grown vertically on 1/2 MS media for 7 days on a nylon mesh, harvested and flash-frozen in liquid nitrogen. Frozen seedlings (3 g/experiment) were ground using mortar and pestle. Proteins were extracted and denatured in 50 mM NaHCO3, 8 M Urea and sonicated three times for 1 min. Protein extracts were rotated for 30 min at room temperature after which the extract was subsequently centrifuged twice at 20,000 × g for 20 min. DTT was added to the supernatant, was added to a final concentration of 5 mM and incubated at 55 °C for 30 min. Proteins were alkylated by the addition of 100 mM iodoacetamide and incubated for 15 min in the dark after which the mix was subsequently diluted with 50 mM NaHCO3 to a final concentration of 2 M urea. Trypsin was added in a ratio of 1:75, protein:trypsin (Sequencing Grade Modified Trypsin, V5117, Promega) and incubated overnight at 37 °C on a rotating wheel.\n(§2) Trypsin was removed using Sep-Pak Vac 3cc columns (500 mg, WAT036815, Waters). The extract was acidified using 1% TFA for 15 min on ice and cleared by centrifugation at 1780 × g for 15 min at room temperature. The cleared extract was split into four and applied on an equilibrated Sep-Pak columns (Waters, WAT036815, Lot # 010437235B). The column was pre-wet using 5 ml of 100% MeCN followed by sequential washing with 1 ml, 3 ml, and 6 ml of 0.1% TFA. After application of the extract, the column was washed sequentially with 1 ml, 5 ml, and 6 ml of 0.1% TFA followed by a 2 ml wash with 0.1% TFA, 5% acetonitrile. The peptides were eluted using three times 2 ml 0.1% TFA, 40% acetonitrile. The eluate was lyophilized for two days to remove TFA. 200 µg EH domain or his-GFP were coupled, in triplicate, during one hour to 25 µl Ni Sepharose 6 Fast Flow beads (GE Healthcare, 17-5318-01). Unbound protein was removed by three washing steps of 1 ml each. The lyophilized peptides were solubilized in 20 mM HEPES, 150 mM NaCl buffer, 0.2 mM CaCl2, divided and added to the coupled beads. The peptidome was incubated with the proteins for 4 h after which the beads were washed three times with 1 ml of the binding buffer. Peptides were eluted by the addition of 80 µl 20 mM HEPES pH 8, 8 M Urea. The supernatant was removed from the beads and desalted with Monospin C18 columns (Agilent Technologies, A57003100) after which they were freeze dried.\n(§3) Peptides were redissolved in 20 µl loading solvent A (0.1% TFA in water/acetonitrile (98:2, v/v)) of which 5 µl was injected for LC-MS/MS analysis on an Ultimate 3000 RSLC nano LC (Thermo Fisher Scientific, Bremen, Germany) in-line connected to a Q Exactive mass spectrometer (Thermo Fisher Scientific). The peptides were first loaded on a trapping column made in-house (100 μm internal diameter (I.D.) × 20 mm, 5 μm beads C18 Reprosil-HD, Dr. Maisch, Ammerbuch-Entringen, Germany) and after flushing from the trapping column the peptides were separated on a 50 cm µPAC™ column with C18-endcapped functionality (Pharmafluidics, Belgium) kept at a constant temperature of 35 °C. Peptides were eluted by a linear gradient from 98% solvent A′ (0.1% formic acid in water) to 55% solvent B′ (0.1% formic acid in water/acetonitrile, 20/80 (v/v)) in 30 min at a flow rate of 300 nl/min, followed by a 5 min wash reaching 99% solvent B’. The mass spectrometer was operated in data-dependent, positive ionization mode, automatically switching between MS and MS/MS acquisition for the 5 most abundant peaks in a given MS spectrum. The source voltage was 2.2 kV, and the capillary temperature was 250 °C. […]"}, "[3]": {"tested_on": "EH1.2+EH1.1", "assay": "Peptidome profiling by mass spectrometry, EH1.2+EH1.1 vs GFP", "assay_type": "binding, Arabidopsis thaliana", "text": "Supplement 41467_2021_23314_MOESM6_ESM.xlsx, sheet \"Supplementary Data 3\" | column: EH1.2+EH1.1 vs GFP"}, "[4]": {"tested_on": "EH1.1", "assay": "Peptidome profiling by mass spectrometry, EH1.1", "assay_type": "binding, Arabidopsis thaliana", "set-up": "scale not given here", "description": "as §1, §2, §3"}, "[5]": {"target": "15N-labeled EH1.1 of AtEH1/Pan1 (amino acids 1-107) for NMR titration (Arabidopsis thaliana)", "sequence (main, as listed by the source)": "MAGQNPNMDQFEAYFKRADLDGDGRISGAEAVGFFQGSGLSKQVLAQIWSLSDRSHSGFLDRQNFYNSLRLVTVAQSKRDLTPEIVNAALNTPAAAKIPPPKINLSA", "assay": "NMR titration; 1H,15N HSQC of 15N-labeled EH domain with successive addition of unlabeled peptide up to 1:4 excess; 20 mM MES 6.5, 150 mM NaCl, 2 mM CaCl2; chemical shift perturbations fitted to a binding isotherm; apparent"}, "[6]": {"target": "15N-labeled EH1.2 of AtEH1/Pan1 (amino acids 346-449) for NMR titration (Arabidopsis thaliana)", "sequence (main, as listed by the source)": "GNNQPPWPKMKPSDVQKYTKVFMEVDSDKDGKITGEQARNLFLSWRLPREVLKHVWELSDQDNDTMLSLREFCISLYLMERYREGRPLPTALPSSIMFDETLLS", "assay": "NMR titration; 1H,15N HSQC of 15N-labeled EH domain with successive addition of unlabeled peptide up to 1:4 excess; 20 mM MES 6.5, 150 mM NaCl, 2 mM CaCl2; chemical shift perturbations fitted to a binding isotherm; apparent"}, "[7]": {"target": "First EH domain of AtEH1/Pan1 (EH1.1), amino acids 1-107, His-tagged (Arabidopsis thaliana)", "assay": "BLI; Octet RED96; His-tagged EH domain on Ni-NTA biosensors, covalently coupled with EDC/NHS; peptide as analyte in increasing concentrations; 20 mM HEPES pH 7.4, 150 mM NaCl, 2 mM CaCl2; 25 °C; steady state, one-site total binding model"}}}
{"molecule": "O=[N+]([O-])c1ccc(NS(=O)(=O)c2ccc(Br)s2)cc1", "note": "[ES-9]", "values": [{"measurement": "effect on SCAMP5 localization (in words)", "setting": "[1]", "result": "caused SCAMP5 accumulation at the PM"}]}
{"molecule": "VFMEVDSDKDGKITGEQAR", "values": [{"measurement": "Difference", "setting": "[2]; EH1.2 vs EH1.1+GFP", "result": 15.5083}, {"measurement": "Difference", "setting": "[2]; EH1.2 vs GFP", "result": 15.257}, {"measurement": "Difference", "setting": "[3]", "result": 7.377}, {"measurement": "Difference", "setting": "[4]; EH1.1 vs EH1.2", "result": -15.7597}, {"measurement": "Difference", "setting": "[4]; EH1.1 vs EH1.2+GFP", "result": -8.131}, {"measurement": "Difference", "setting": "[4]; EH1.1 vs GFP", "result": -0.5027}]}
{"molecule": "DLTPEIVNAALNTPAAAK", "values": [{"measurement": "Difference", "setting": "[2]; EH1.2 vs EH1.1+GFP", "result": -3.31}, {"measurement": "Difference", "setting": "[2]; EH1.2 vs GFP", "result": 3.059}, {"measurement": "Difference", "setting": "[3]", "result": 7.898}, {"measurement": "Difference", "setting": "[4]; EH1.1 vs EH1.2", "result": 9.679}, {"measurement": "Difference", "setting": "[4]; EH1.1 vs EH1.2+GFP", "result": 11.2082}, {"measurement": "Difference", "setting": "[4]; EH1.1 vs GFP", "result": 12.7377}]}
{"molecule": "YHASAIHVPGPEVAR", "values": [{"measurement": "Difference", "setting": "[2]; EH1.2 vs EH1.1+GFP", "result": 3.084}, {"measurement": "Difference", "setting": "[2]; EH1.2 vs GFP", "result": 7.163}, {"measurement": "Difference", "setting": "[3]", "result": 7.661}, {"measurement": "Difference", "setting": "[4]; EH1.1 vs EH1.2", "result": 0.9954}, {"measurement": "Difference", "setting": "[4]; EH1.1 vs EH1.2+GFP", "result": 4.577}, {"measurement": "Difference", "setting": "[4]; EH1.1 vs GFP", "result": 8.159}]}
{"molecule": "DPNPFDEDEEIVNPFSK (modifications not checked)", "values": [{"measurement": "Kd", "setting": "[5]", "result": 33, "unit": "µM"}, {"measurement": "Kd", "setting": "[6]", "result": 190, "unit": "µM"}, {"measurement": "Kd", "setting": "[7]", "result": 59, "unit": "µM"}]}
